Data reported in patent publication US12370255B2, “Peptide-based vaccines, methods of manufacturing, and uses thereof for inducing an immune response” (Barinthus Biotherapeutics North America, Inc., priority 2017, dated 2025).
Entries after “also recorded” stand apart in the source; their conditions may differ. *1 amine or outer side, *2 acyl side, *3 side chain or, on linkers, in order; H or OH if unused. Where a SMILES comes first, the peptide text is derived from it. Where no end group is shown, it is not given here. Side-chain parts run from the residue outwards. The star is where a group is joined. 2B = 1-(4-aminobutyl)-2-butyl-1H-imidazo[4,5-c]quinolin-4-amine, CCCCc1nc2c(N)nc3ccccc3c2n1CCCCN*; X2 = CCCCNc1nc(N)c2nc(O)n(Cc3ccc(C(=O)NCC(=O)NCCCn4nnc5c4-c4ccccc4N(*)Cc4ccccc4-5)cc3)c2n1; X1 = C1=C\c2ccccc2N(*)Cc2ccccc2/1; Suc = O=C(CCC(=O)[*:2])[*:1]

Assays:
T cells = assay: T cell responses in vivo induced by peptide antigen conjugates; conditions: immunogenic compositions of peptide antigen conjugates
Source text: FIG. 37 discloses SEQ ID NOS 580-585, respectively, in order of appearance.
FIG. 38 discloses SEQ ID NOS 586-602, respectively, in order of appearance.
FIG. 39 discloses SEQ ID NOS 603-605 and 605, respectively, in order of appearance.
FIG. 40 discloses SEQ ID NOS 606-610, respectively, in order of appearance.
FIG. 41 discloses SEQ ID NOS 603-605, 103 and 611, respectively, in order of appearance.
FIG. 42 discloses SEQ ID NO: 104.
FIG. 45 discloses SEQ ID NOS 619, 620, 619, 621, 180 and 622, respectively, in order of appearance.

CD8 T cells = assay: antigen-specific CD8 T cell responses (% IFNg+ of total CD8 T cells) from whole blood of immunized mice; assay type: in vivo; conditions: native LP neoantigen admixed with pICLC; immunized days 0 and 14, day 28
Source text: Mice (N=5 per group) were immunized with different immunogenic compositions comprising peptide antigens (A) based on either the synthetic long peptide (LP, sometimes referred to as “SLP”) or the minimal CD8 T cell epitope (Min, sometimes referred to as ME) of the antigen Irgq derived from the MC38 tumor cell line either as the peptide antigen (A) alone admixed with the TLR-7/8a adjuvant; as the peptide antigen (A) linked to a hydrophobic molecule (H), W3, and admixed with the TLR-7/8a adjuvant; or as the peptide antigen (A) linked to a hydrophobic molecule (H) co-delivering a TLR-7/8a adjuvant, 2BXy3. Mice were immunized at days 0 and 14 and antigen-specific CD8 T cell responses (% IFNg+ of total CD8 T cells) were assessed from whole blood at days 0 and 25. Open circles indicate that the peptide antigen (A) was soluble (i.e. non-particulate), whereas closed circles indicate that the mice received a particulate immunogenic composition of the peptide antigen (A).
Mice (N=5 per group) were immunized with different immunogenic compositions comprising peptide antigens (A) based on either the synthetic long peptide (LP) or minimal CD8 T cell epitope (Min) of the antigen Cpne1 derived from the MC38 tumor cell line either as the peptide antigen (A) alone admixed with the TLR-7/8a adjuvant; as the peptide antigen (A) linked to a hydrophobic molecule (H), W3, and admixed with the TLR-7/8a adjuvant; or as the peptide antigen (A) linked to a hydrophobic molecule (H) co-delivering a TLR-7/8a adjuvant, 2BXy3. Mice were immunized at days 0 and 14 and antigen-specific CD8 T cell responses (% IFNg+ of total CD8 T cells) were assessed from whole blood at days 0 and 25. […]
Mice (N=5 per group) were immunized with immunogenic compositions comprising 4 unique peptide antigen conjugates delivering a distinct MC38 tumor derived minimal CD8 T cell epitopes (40 total epitopes) that were linked to either 2BXy5 or 2B5 hydrophobic molecules (H). Mice were immunized at days 0 and 14 and antigen-specific CD8 T cell responses (% IFNg+ of total CD8 T cells) were assessed from whole blood at day 24.

[1] = hydrodynamic behavior: water solubility, particle size by dynamic light scattering and turbidity in PBS pH 7.4; assay type: physicochemical; conditions: aqueous buffer at pH about 7.4
Source text: FIG. 4: Molecular weight and hydrodynamic behavior of peptide antigens (A) and peptide antigen conjugates delivering peptide antigens (A) comprised of either synthetic long peptides (SLP or “LP”) or minimal (“Min”) CD8 T cell epitopes derived from the MC38 tumor cell line. […] FIG. 4 discloses SEQ ID NOS 190-199, 623 and 200, respectively, in order of appearance. FIG. 18: Impact of peptide antigen conjugate net charge and hydrophobic molecule composition on hydrodynamic behavior. The hydrodynamic behavior of a range of different peptide antigen conjugates of Formula V at 0.1 mg/mL or 0.5 mg/mL in PBS at a pH of 7.4 was assessed by dynamic light scattering. […] Turbidity was determined by measuring the absorbance of the solution at 490 nm. […] (A) The impact of net charge on the hydrodynamic behavior of a range of different peptide antigen conjugates of Formula V suspended at 0.1 mg/mL or 0.5 mg/mL in PBS at a pH of 7.4 was assessed by dynamic light scattering. […] The hydrodynamic behavior of a range of different peptide antigen conjugates suspended at 0.1 mg/mL in PBS at a pH of 7.4 was assessed by dynamic light scattering. […] Particle size was assessed by dynamic light scattering with the peptide antigen conjugate suspended at 0.5 mg/mL in PBS at a pH of 7.4. […] Solubility can be determined by visual inspection, by turbidity measurements or by dynamic light scattering.

| Compound | T cell responses in vivo (in words) (T cells) | CD8 T cell responses (in words) (CD8 T cells) | particle formation and stability (in words) [1] |
| --- | --- | --- | --- |
| CCCCNc1nc(N)c2nc(O)n(Cc3ccc(C(=O)NCC(=O)NCCCn4nnc5c4-c4ccccc4N(C(=O)CCC(=O)NCCCCC(NC(=O)CNC(=O)CCC(=O)N4Cc6ccccc6/C=C\c6ccccc64)C(=O)NCC(=O)NC(Cc4c[nH]c6ccccc46)C(=O)NC(Cc4c[nH]c6ccccc46)C(=O)NC(Cc4c[nH]c6ccccc46)C(=O)NC(Cc4c[nH]c6ccccc46)C(=O)NC(Cc4c[nH]c6ccccc46)C(N)=O)Cc4ccccc4-5)cc3)c2n1 (centres unmarked) [Compound 30] ({X1-Suc}-GK([Suc-X2])GWWWWW-NH2; configuration not given here) | highest magnitude responses | – | – |
| CCCCc1nc2c(N)nc3ccccc3c2n1CCCCNC(=O)CCC(NC(=O)C(Cc1c[nH]c2ccccc12)NC(=O)C(CCC(=O)NCCCCn1c(CCCC)nc2c(N)nc3ccccc3c21)NC(=O)C(Cc1c[nH]c2ccccc12)NC(=O)C(CCC(=O)NCCCCn1c(CCCC)nc2c(N)nc3ccccc3c21)NC(=O)CCC(=O)N1Cc2ccccc2-c2c(nnn2CCCCC(=O)NC(CCCCN)C(=O)NC(CCCCN)C(=O)NC(CCCCN)C(=O)NC(CCCCN)C(=O)NC(CCCCN)C(=O)NC(CCCCN)C(=O)NC(CCCCN)C(=O)NC(CCCCN)C(=O)NC(CCCCN)C(=O)NC(CCCCN)C(N)=O)-c2ccccc21)C(N)=O (centres unmarked) [Compound 42] | high magnitude T cell immunity | – | – |
| Adpgk: native LP neoantigen from MC38 that assembles into particles; minimal epitope Ala-Ser-Met-Thr-Asn-Met-Glu-Leu-Met (ASMTNMELM) | – | significant increase in CD8 T cell responses over background; also recorded: immunogenic | – |
| Compound 16 (GGE(2B)GGE(2B)GGE(2B)GGE(2B)GGE(2B); also: DBCO) | high magnitude T cell responses | – | formed stable nanoparticle micelles |
| Compound 20 (KGWGWGKGWGWGKGWGWGKGWGWGKGWGWG; not fully specified (residues 1, 7, 13, 19, 25)) | high magnitude T cell responses | – | formed stable nanoparticle micelles |
| Cpne1: native LP neoantigen derived from the MC38 tumor cell line, water soluble; minimal epitope Ser-Ser-Pro-Tyr-Ser-Leu-His-Tyr-Leu (SSPYSLHYL) | – | no CD8 T cell responses | – |
